# Laboratory results from patent US20240182945A1, “PRODUCTS FOR REGULATION OF EUKARYOTIC AND MICROBIAL CELLS GROWTH” (priority 2021, published 2024).
# What was measured:
# Type in all cases: cell-based
# Conditions in all cases: Bacterial set #1; Meropenem (16 μg/mL); Columbia agar with erythrocytes 5%, 24 h at 37 C
# [1] = system: B. sonorensis; experiment: Growth of microbial modulator alone on antibiotic-supplemented Columbia agar
# [2] = system: S. anginosus; experiment: as above
# [3] = system: MIX—PP +BM (P. aeruginosa with microbial modulators); experiment: Growth of mix PP + MM (original sputum) on antibiotic-supplemented Columbia agar
# [4] = system: E. coli; experiment: Growth of microbial modulator alone on antibiotic-supplemented Columbia agar
# [5] = system: P. aeruginosa; experiment: Growth of primary pathogen alone on antibiotic-supplemented Columbia agar
# Experimental: Four sputum samples from patients with lung infections were used. Pure bacterial culture of each microorganisms was obtained by routine microbiological methods.
# In this case this antibiotic at MIC of 16 ug/mL was used in the following studies. PP alone, or Microbial Modulators (MM) alone or the original sputum were plated on the wells of 24 well plate filled with nutrient Columbia agar supplemented with erythrocytes 5% and supplemented with antibiotics taken as MIC determined against PP, but not more than 16 μg/mL and incubated 24 h at 37 C.
structure (smiles),measurement,setting,value
C[C@@H](O)[C@H]1C(=O)N2C(C(=O)O)=C(S[C@@H]3CN[C@H](C(=O)N(C)C)C3)[C@H](C)[C@H]12 [Meropenem],"microbial growth, BS (BM alone)",[1],−
same,"microbial growth, SA (BM alone)",[2],−
same,"microbial growth, MIX (PP + MM)",[3],−
same,"microbial growth, EC (BM alone)",[4],+
same,"microbial growth, PA (PP alone)",[5],+
